# According to patent US8299097B2, “Methods for treating inflammatory disorders” (The Brigham and Women's Hospital, Inc., priority 2008, dated 2012):
# Columns and labels:
# human P2Y12 [1] = target: T1, human P2Y12 (Homo sapiens, UniProt Q9H244); assay: Binding of cys-LTs to membranes of CHO cells stably expressing the human P2Y12 receptor; design: polyhistidine (HIS) tag (C); expressed in transfected cells
# From the text: (§1) A P2Y12 receptor cDNA was amplified by reverse transcriptase polymerase chain reaction (RT-PCR) from RNA extracted from primary hMCs and cloned into a mammalian expression vector. Expression was confirmed by detection of a histidine (HIS) tag by flow cytometry. Another cohort of CHO cells were stably transfected with a P2Y12 receptor construct in reverse orientation as a negative control. […] The cys-LT-induced ERK activation blocked by pre-treatment of the cells with pertussis toxin (PTX), was attenuated by treatment with the P2Y12 receptor-selective antagonist 2-methylthioadenosine monophosphate (2-MesAMP) (FIG. 1C), and was resistant to MK571, an inhibitor that blocks CysLT1R and some P2Y receptors (Mamedova, L., et al. 2005. Biochem. Pharmacol. 71:115-125). […] These responses were resistant to PTX and 2-MesAMP, and susceptible to MK571 in the case of the CysLT1R transfectants.
# A human P2Y12 receptor cDNA was amplified by 30 cycles of PCR from reverse-transcribed total RNA extracted from primary cord blood hMCs. The primer sequences were 5′-[…] (SEQ ID NO: 1) and 3′-[…] (SEQ ID NO: 2). The fragment was cloned into a TA vector (INVITROGEN™). After verifying the nucleotide sequence, the fragment was subcloned into the multiple cloning site of the expression vector pEF1/His B, encoding a C-terminal polyhistidine (HIS) tag. A plasmid expressing the P2Y12 receptor construct in the forward orientation were transfected into CHO cells using Fugene HD reagent according to manufacturer's protocol. A construct in the reverse sequence was transfected in parallel as a negative control. […]
# [^3H] […] Protein concentration was determined using Biorad Protein Assay Kit. […] The residual membrane-associated [^3H] on the filter was determined in 2 ml scintillation fluid by beta counter (Perkin Elmer). For [^3H]ADP, specific binding was determined by subtracting the amount of [^3H] bound in the presence of 100 μM 2-MesADP from total binding.
# human P2Y12 [2] = target: T1, human P2Y12; assay: Binding of [P^33]2-MesADP and [H^3]LTE4 to membranes of COS-7 cells transfected with the human P2Y12 construct; design: polyhistidine (HIS) tag (C); expressed in transfected cells; host or cells: COS-7 cells, transient; settings: COS-7 membranes, forward P2Y12 construct
# Protocol: FIG. 10. Competitive ligand binding assays. 10A. […] Specific binding (typically 50-75% of the total) was calculated by subtracting the amount of radiolabel that was insensitive to the selective P2Y12 receptor antagonist 2-MesAMP. Nonspecific binding was essentially identical in the membranes with and without P2Y12 receptor knockdown. The dose response for the LAD2 membranes are from a single experiment repeated four times with similar results. The binding on the LAD2 cells with P2Y12 knocked down was repeated twice. 10B. Specific binding of radiolabeled ADP (2000 nM) to membranes of LAD2 cells. […] Results are mean±SD from three separate experiments. 10C. Conversion of radiolabeled LTD4 to LTE4 as confirmed by HPLC (left). […] Results in a second experiment were similar 10D. Competitive binding of radiolabeled 2-MesADP to COS-7 cells transfected with the human P2Y12 construct.
# Competitive radioligand binding assays were performed using [H^3]ADP (the known natural ligand of P2Y12 receptors) and unlabeled LTs as competitors. […] The membranes from the transfectants expressing the forward construct bound [P^33]2-MesADP, a selective P2Y12 receptor agonist.
# human P2Y12 [3] = target: T1, human P2Y12; assay: ERK activation (phosphorylation immunoblot) in P2Y12-expressing CHO cells; format: cell-based; design: polyhistidine (HIS) tag (C); expressed in transfected cells; settings: for ERK activation by agonist: stimulated 15 min
# Protocol: FIG. 1. Activation by recombinant human P2Y12 receptors in response to cys-LTs. The human P2Y12 receptor cDNA was cloned in forward and reverse orientation into the expression vector pEF1/His B and transfected into CHO cells using Fugene HD reagent. Stably-expressing clones were selected using G418 (1000 μg/ml), and expression of the construct was confirmed by cytofluorographic detection of the HIS tag. 1A. […] Results in second experiment were identical. 1B. SDS-PAGE immunoblots showing phosphorylation of ERK2 by CHO cells stably expressing human P2Y12 receptors in reverse (negative control) or forward orientations. […] The blots were stripped and re-probed with an antibody (Ab) recognizing total ERK1 and ERK2. […] 1C. Effect of the selective P2Y12 receptor antagonist 2-MesAMP (MeS) on ligand-induced ERK phosphorylation. P2Y12 receptor expressing CHO cells were stimulated with the same doses of agonists used in 1A, in the absence or presence of 2-MesAMP (100 μM). 1D. Comparison of P2Y12 receptor-mediated responses to cys-LTs with those of recombinant human CysLT1R and CysLT2R expressed in CHO cells, and the effect of the CysLT1R antagonist MK571 (1 μM). Data in 1B-1D are from individual experiments that were repeated at least 3 times with similar results.
# FIG. 8. […] Cells were stably transfected with the human P2Y12 construct and stimulated for 15 minutes with the indicated ligand concentrations. […] Results in a second experiment were similar.
# as §1
# A human P2Y12 receptor cDNA was amplified by 30 cycles of PCR from reverse-transcribed total RNA extracted from primary cord blood hMCs. The primer sequences were 5′-[…] (SEQ ID NO: 1) and 3′-[…] (SEQ ID NO: 2). The fragment was cloned into a TA vector (INVITROGEN™). After verifying the nucleotide sequence, the fragment was subcloned into the multiple cloning site of the expression vector pEF1/His B, encoding a C-terminal polyhistidine (HIS) tag. […]
# T1 sequence (Q9H244 whole entry): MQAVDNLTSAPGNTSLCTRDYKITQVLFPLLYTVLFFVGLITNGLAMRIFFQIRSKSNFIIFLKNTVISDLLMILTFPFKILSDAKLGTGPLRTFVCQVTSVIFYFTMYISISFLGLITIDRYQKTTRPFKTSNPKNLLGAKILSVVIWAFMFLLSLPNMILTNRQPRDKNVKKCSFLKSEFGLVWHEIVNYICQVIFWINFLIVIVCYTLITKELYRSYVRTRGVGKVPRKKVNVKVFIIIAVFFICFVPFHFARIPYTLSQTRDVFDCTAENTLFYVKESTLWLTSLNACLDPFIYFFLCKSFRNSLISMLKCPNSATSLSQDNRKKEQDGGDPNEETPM
Structure (SMILES),binding to membranes of the transfectants (human P2Y12 [1]),competition for [P^33]2-MesADP binding (human P2Y12 [2]),ERK activation by agonist (human P2Y12 [3]),"effect on cys-LT-induced ERK activation (human P2Y12 [3]; 2-MesAMP 100 μM, MK571 1 μM)","Kd (human P2Y12 [1]; membranes of P2Y12 CHO transfectants, read-out: affinity constant)",binding of [H^3]LTE4 to membranes (human P2Y12 [2])
CCCCC/C=C\C\C=C/C=C/C=C/[C@@H](SC[C@H](N)C(=O)NCC(=O)O)[C@@H](O)CCCC(=O)O [LTD4],also bound,not competed,"robust, dose-dependent ERK activation",,,
CN(C)C(=O)CCSC(SCCC(=O)O)c1cccc(/C=C/c2ccc3ccc(Cl)cc3n2)c1 (centres unmarked) [MK571],,,,resistant,,
CCCCC/C=C\C\C=C/C=C/C=C/[C@@H](SC[C@H](N)C(=O)O)[C@@H](O)CCCC(=O)O [LTE4],,not competed,"robust, dose-dependent ERK activation",,10 nM,failed to bind
